Measurements as given in patent US20100008965A1, “BIOCOMPATIBLE MEDICAL PRODUCTS HAVING ENHANCED ANTI-THROMBOGENIC PROPERTIES” (priority 2008, published 2010).

Legend:
[1] = system: HCAEC; experiment: HCAEC cell binding assay to immobilized fibronectin polypeptides (crystal violet); format: cell-based, human; settings: immobilized, 8 h
Method: (§1) Human coronary artery endothelial cell (HCAEC) and human umbilical vein endothelial cell (HUVEC) primary human cells were obtained (Cambrex Corporation, East Rutherford, N.J.) and maintained according to the manufacturer's instructions at 37° C. and 5% CO2. HCAEC were grown in microvascular endothelial cell medium (EBM-2 MV, Cambrex) supplemented with 5% fetal bovine serum, 0.1% human epidermal growth factor, 0.04% hydrocortisone, 0.1% vascular endothelial growth factor, 0.4% human fibroblast growth factor-B, 0.1% R^3-insulin-like growth factor-1, 0.1% ascorbic acid, and 0.1% gentamicin and amphotericin-B (GA-1000). HUVEC were grown in endothelial cell medium (EBM, Cambrex) supplemented with 2% fetal bovine serum, 0.4% bovine brain extract, 0.1% human epidermal growth factor, 0.1% hydrocortisone, and 0.1% gentamicin and amphotericin-B (GA-1000). HCAEC and HUVEC were subcultured at 90-95% confluence using 0.05% trypsin-EDTA (Invitrogen, Carlsbad, Calif.) and used for experiments between passages 3-7 (HUVEC) or 5-11 (HCAEC).
HCAEC or HUVEC cell binding assays to immobilized recombinant fibronectin polypeptides were performed in order to ascertain which polypeptide(s) maximally support(s) alpha-4 integrin-mediated cell adhesion. Connecting Segment-1 (SEQ ID NO:1), EILDV (SEQ ID NO:2), RGDS (SEQ ID NO:3) (positive control), RGES (SEQ ID NO:4) (negative control), and EILEVPST (SEQ ID NO:5) (negative control) and were immobilized by drying overnight at room temperature in Immobilizer™ Amino 96-well microplates (Nalge Nunc International, Rochester, N.Y.). RGES, EILDV, and EILEVPST were incubated at a molar equivalent concentration equal to 200 μg RGDS per well. CS-1 was incubated at 50 μg/well. On a molar basis per well, this equates to approximately twenty-fold less CS-1 relative to RGDS. […] Cells were manually counted, and their concentration adjusted to yield a total cell population of 5×10^4 cells/well. […] Spectrometric absorbance values were read at 562 nm at room temperature using a ThermoMax microplate reader (Molecular Devices Corporation, Sunnyvale, Calif.).

[2] = system: HUVEC; experiment: HUVEC cell binding assay to immobilized fibronectin polypeptides (crystal violet); format: cell-based, human; settings: 8 h
Method: as §1, with “HCAEC and HUVEC were subcultured at 90-95% confluence using 0.05% trypsin-EDTA (Invitrogen, Carlsbad, Calif.) and used for experiments between passages 3-7 (HUVEC) or 5-11 (HCAEC).” left out
HCAEC or HUVEC cell binding assays to immobilized recombinant fibronectin polypeptides were performed in order to ascertain which polypeptide(s) maximally support(s) alpha-4 integrin-mediated cell adhesion. […] Cells were manually counted, and their concentration adjusted to yield a total cell population of 5×10^4 cells/well. […] Spectrometric absorbance values were read at 562 nm at room temperature using a ThermoMax microplate reader (Molecular Devices Corporation, Sunnyvale, Calif.).

[3] = system: HCAEC; experiment: alpha-4 integrin function blocking cell binding assay, HCAEC; format: cell-based, human; settings: 0.5 μg antibody per 5×10^4 cells, 8 h; CS-1 p<0.05
Method: (§2) To verify that HCAEC or HUVEC adhesion to immobilized CS-1 polypeptides is specifically mediated via alpha-4-containing integrin heterodimers, alpha-4 integrin function blocking cell binding assays were performed. RGDS, EILEVPST, and CS-1 polypeptides were immobilized in Immobilizer™ Amino 96-well microplates. Microplate wells were prepared as described above. Trypsinized HCAEC or HUVEC suspensions were manually counted, aliquoted into two groups, and incubated for one hour on ice with one of the following antibodies at a concentration of 0.5 μg antibody per 5×10^4 cells: (a) mouse monoclonal IgG1 anti-human alpha-4-integrin (CD49d, clone P1H4) (Chemicon), or (b) mouse monoclonal IgG1 anti-human isotype-matched control (R&D Systems). Next, 5×10^4 cells suspended in their respective basal medium were added to wells containing immobilized peptide polypeptides and incubated for eight hours at 37° C. and a 5% CO2 atmosphere. Adherent cells were analyzed via crystal violet staining as described previously.
To differentiate whether HCAEC and HUVEC adhere to CS-1 peptides via an alpha-4 integrin-specific interaction, HCAEC and HUVEC adhesion assays to CS-1, RGDS, and EILEVPST peptides were performed following one hour endothelial cell incubations with either an alpha-4 integrin function blocking antibody or an IgG isotype-matched control antibody. The EILEVPST peptide served as the negative control cell adhesion peptide. The RGDS peptide served as an additional control. Endothelial cell adhesion to RGDS is primarily mediated by alpha-5-beta-1 integrins. Therefore, alpha-4 integrin function blocking should not have a significant effect on adhesion to RGDS. Thus, specificity of HCAEC and HUVEC binding to CS-1 via alpha-4 integrins could be tested.

[4] = system: HUVEC; experiment: alpha-4 integrin function blocking cell binding assay, HUVEC; format: cell-based, human; settings: 0.5 μg antibody per 5×10^4 cells, 8 h; CS-1 p=0.1
Method: as §2
To differentiate whether HCAEC and HUVEC adhere to CS-1 peptides via an alpha-4 integrin-specific interaction, HCAEC and HUVEC adhesion assays to CS-1, RGDS, and EILEVPST peptides were performed following one hour endothelial cell incubations with either an alpha-4 integrin function blocking antibody or an IgG isotype-matched control antibody. […]

[5] = molecular target: human alpha-4 integrin (CD49d), alpha-4-containing integrin heterodimers on endothelial cells (human) (UniProt P13612); experiment: flow cytometry, FITC-BU49 on fixed HCAEC, against isotype control
Sequence of human alpha-4 integrin (CD49d), alpha-4-containing integrin heterodimers on endothelial cells (human) (P13612 34-1032, one chain of several): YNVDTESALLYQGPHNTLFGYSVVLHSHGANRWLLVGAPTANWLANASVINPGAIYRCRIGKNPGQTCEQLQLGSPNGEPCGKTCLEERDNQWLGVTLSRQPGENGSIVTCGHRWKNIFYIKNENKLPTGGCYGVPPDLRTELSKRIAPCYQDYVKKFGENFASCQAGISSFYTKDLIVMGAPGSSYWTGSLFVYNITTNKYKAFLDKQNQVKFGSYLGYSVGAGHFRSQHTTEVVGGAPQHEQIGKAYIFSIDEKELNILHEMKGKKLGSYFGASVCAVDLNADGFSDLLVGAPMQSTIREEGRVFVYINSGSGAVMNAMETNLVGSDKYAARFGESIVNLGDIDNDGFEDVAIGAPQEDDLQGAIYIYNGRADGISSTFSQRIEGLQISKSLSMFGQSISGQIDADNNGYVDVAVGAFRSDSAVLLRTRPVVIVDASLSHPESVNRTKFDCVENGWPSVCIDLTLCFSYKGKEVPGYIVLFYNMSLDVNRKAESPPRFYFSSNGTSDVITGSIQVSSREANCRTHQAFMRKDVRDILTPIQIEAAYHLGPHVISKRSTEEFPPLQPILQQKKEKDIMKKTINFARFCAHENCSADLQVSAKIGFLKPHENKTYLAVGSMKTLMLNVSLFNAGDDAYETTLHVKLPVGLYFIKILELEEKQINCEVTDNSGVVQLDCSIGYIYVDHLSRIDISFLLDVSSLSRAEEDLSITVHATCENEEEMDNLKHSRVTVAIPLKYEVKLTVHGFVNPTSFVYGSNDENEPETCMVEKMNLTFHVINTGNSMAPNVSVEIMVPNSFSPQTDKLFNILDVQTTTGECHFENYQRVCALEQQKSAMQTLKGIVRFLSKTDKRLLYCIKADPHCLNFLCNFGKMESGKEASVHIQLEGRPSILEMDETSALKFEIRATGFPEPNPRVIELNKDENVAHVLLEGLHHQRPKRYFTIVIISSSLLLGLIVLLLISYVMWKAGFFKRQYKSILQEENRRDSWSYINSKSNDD

[6] = molecular target: human alpha-4 integrin (CD49d), alpha-4-containing integrin heterodimers on endothelial cells (human) (UniProt P13612); experiment: flow cytometry, FITC-BU49 on fixed HUVEC, against isotype control
[7] = molecular target: human alpha-4 integrin (CD49d), alpha-4-containing integrin heterodimers on endothelial cells (human) (UniProt P13612); experiment: flow cytometry, FITC-BU49 on fixed human foreskin fibroblasts, against isotype control
[8] = system: human platelets; experiment: DiOC6-labeled platelet adhesion imaging under shear flow; format: cell-based; settings: 16.5 dyne/cm^2, one hour
Method: To visualize shear stress-mediated platelet adhesion to the immobilized ECM proteins, non-radiolabeled non-activated or thrombin-activated human platelets were prepared as described above, but were first incubated for ten minutes at room temperature with a 10 μM DiOC6 (dihexaoxacarbocyanine iodide) (Sigma) solution prior to being subjected to flow for one hour at a shear stress τ=16.5 dyne/cm^2. Post-flow, all slides were rinsed twice with PBS and fixed with 4% (w/v) paraformaldehyde. Platelet adhesion was visualized on a Nikon Diaphot 200 inverted epifluorescence microscope (Nikon) at 488 nm using a 40× objective. Images were captured using an Olympus DP70 digital camera (Olympus America, Inc.) and analyzed using the Adobe® Photoshop® software package version 6.0 (Adobe Systems Incorporated, San Jose, Calif.).

[9] = system: human platelets; experiment: 51Cr-labeled platelet adhesion to immobilized ECM proteins under shear flow; format: cell-based; settings: 16.5 dyne/cm^2, one hour; non-activated and thrombin-activated; versus CS-1 and glass control
Method: Characterization of human platelet adhesion to immobilized extracellular matrix proteins was performed by subjecting non-activated or thrombin-activated human platelets to a shear stress τ=16.5 dyne/cm^2 for one hour using a peristaltic pump-driven parallel plate fluid flow system. Washed human platelets were isolated as described above, resuspended in platelet washing buffer (PWB), and adjusted to a final concentration of approximately 0.5-1.0×10^9 platelets/ml. The platelet suspensions were incubated for thirty minutes at room temperature with 25 μCi/ml Na2^51CrO4 (GE Healthcare, Piscataway, N.J.). ^51Cr-labeled platelets were centrifuged at 2000×g for three minutes at room temperature and resuspended in 20 ml fresh frozen plasma previously thawed and warmed to 37° C. The ^51Cr-platelet/plasma solution was distributed equally (5 ml) into each of four reservoirs containing an additional 50 ml of 37° C. human plasma. For thrombin-activated platelets, 1 U thrombin (Sigma) per 3 ml platelet suspension was added immediately prior to aliquoting the ^51Cr-platelet/plasma solution into the flow loop reservoirs.
75×38×1 mm glass microscope slides were coated with ECM proteins as described above. Slides were incubated for one hour at room temperature with a 0.25% (w/v) sterile-filtered BSA solution. […]

[10] = molecular target: human alpha-4 integrin (CD49d), alpha-4-containing integrin heterodimers on endothelial cells (human, UniProt P13612 34-1032); experiment: cell-based or functional assay
Sequence of human alpha-4 integrin (CD49d), alpha-4-containing integrin heterodimers on endothelial cells (P13612 34-1032, one chain of several): as above

EILDV (listed as Homo sapiens) [fibronectin IIICS peptide]
HCAEC adhesion compared with RGES control [1]: not statistically different than the RGES control

EILEVPST (listed as Homo sapiens) [alpha-4 integrin-mediated negative control peptide]
HCAEC adhesion compared with RGES control [1]: essentially equivalent | HUVEC adhesion compared with RGES control [2]: essentially equivalent | difference in HCAEC adhesion between IgG isotype control and alpha-4 integrin blocking antibody treated cells [3]: not statistically significant | difference in HUVEC adhesion between IgG isotype control and alpha-4 integrin blocking antibody treated cells [4]: not statistically significant

FITC-conjugated mouse monoclonal IgG1 anti-human alpha-4 integrin (CD49d, clone BU49) (Chemicon International) (antibody)
percent of cell population positive [5]: 40% | percent of cell population positive [6]: 10% | percent of cell population positive [7]: 75%

RGDS (listed as Homo sapiens) [integrin-mediated cell adhesion peptide, positive control]
difference in HCAEC adhesion between IgG isotype control and alpha-4 integrin blocking antibody treated cells [3]: not statistically significant | difference in HUVEC adhesion between IgG isotype control and alpha-4 integrin blocking antibody treated cells [4]: not statistically significant

type I human collagen: human type I collagen (Sigma), extracellular matrix protein
non-activated platelet adhesion and thrombus formation (DiOC6 images) ([8]; non-activated platelets): quite vigorous, with clear evidence of multiple organized thrombi | thrombin-activated platelet adhesion and thrombus formation (DiOC6 images) ([8]; platelets activated prior to flow): mimicked the non-activated counterparts | flowed platelet binding (51Cr), both states of activation [9]: significantly increased binding

DELPQLVTLPHPNLHGPEILDVPST
HCAEC adhesion to immobilized peptide, fold relative to control peptide RGES (crystal violet, A562) [10]: 1.6 fold | HUVEC adhesion to immobilized peptide, fold relative to control peptide RGES (crystal violet, A562) [10]: ~4 fold | percent more of the total HCAEC population adhered, relative to RGES [10]: ~20% | percent more of the total HUVEC population adhered, relative to RGES [10]: ~25%
